Data reported in patent US11198692B2, “Dihydro-pyrrolo-pyridine derivatives” (Pfizer Inc., priority 2017, dated 2021).

Molecular target: T1, Human M4 receptors (Homo sapiens, UniProt P08173)
T1 construct: expressed in transfected cells
T1 sequence (P08173 1-479): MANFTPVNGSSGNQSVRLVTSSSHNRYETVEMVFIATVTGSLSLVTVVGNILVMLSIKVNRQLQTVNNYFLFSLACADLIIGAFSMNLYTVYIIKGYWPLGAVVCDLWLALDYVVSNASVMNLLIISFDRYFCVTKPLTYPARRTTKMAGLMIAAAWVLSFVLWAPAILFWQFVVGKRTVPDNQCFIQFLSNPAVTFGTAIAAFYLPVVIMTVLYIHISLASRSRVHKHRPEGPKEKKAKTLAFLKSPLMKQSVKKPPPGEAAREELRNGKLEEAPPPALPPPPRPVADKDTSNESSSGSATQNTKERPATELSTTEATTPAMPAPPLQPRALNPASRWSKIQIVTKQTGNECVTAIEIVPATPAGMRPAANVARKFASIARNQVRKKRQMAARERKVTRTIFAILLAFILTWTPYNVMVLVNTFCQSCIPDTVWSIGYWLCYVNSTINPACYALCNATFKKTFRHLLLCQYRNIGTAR
Experiment: M4 PAM cAMP assay (GloSensor)
Format: cell-based
Conditions: HEK293 GloSensor cells expressing hM4, with EC20 acetylcholine and isoproterenol, geometric mean of 2-4 determinations unless footnoted (b: >=5, c: single); for Emax / EC50 Mean Asymptote Maximum (%): Emax = maximum asymptote of fitted dose response curve; for Emax: read-out: EC50 Mean Asymptote Maximum (%)
Method: The M4 cAMP assay was designed to determine the potency and efficacy of muscarinic positive allosteric modulators (PAMs). Human M4 receptors were stably expressed in Human embryonic kidney (HEK293) cells expressed with the Promega GloSensor™ cAMP technology.
HEK293 GloSensor cells expressing hM4 cells were cultured in growth media containing DMEM with 10% FBS, 1% Penicillin/Streptomycin, 500 μg/mL G418, 200 μg/mL Hygomycin B, and 1% Glutamax. When cells had grown to 80%-90% confluency, cells were harvested and seeded at a density of 25,000 cells/40 μL well, in a 384 white walled plates (Becton Dickinson 356661). Plates were incubated at 37 degrees C. and 5% CO2 for use after 24 hours.
Compound Preparation for Activator Screen:
Test compounds were initially prepared as 100% DMSO stock solutions, then transferred and serially diluted in 384-well compound plates (Matrix #4325). Each compound was tested at 10 concentrations in duplicate per experiment. Compound plates are spotted with 0.2 μL/well activator at 400 times the final assay concentration. Positive and negative controls for the compound alone activator response was 10 μM acetylcholine (Sigma # A2661) and DMSO, respectively. EC20 of acetylcholine was also used to define PAM activities.
Promega GloSensor™reagent (Promega # E1291) had previously been aliquotted. For each experiment, a stock solution of GloSensor™ was thawed out and equilibration medium was prepared with 88% CO2-independent media (Invitrogen #18045088), 10% fetal bovine serum and 2% GloSensor™ cAMP Reagent stock solution. Stock solution was mixed. Culture media in cell plates was discarded, then replaced with 40 μL/well pre-warmed equilibration media, then incubated in the dark at room temperature for 2 hours. During the incubation, stimulation media containing agonist and EC20 acetylcholine was prepared. CO2-independent media containing 50 […] Isoproterenol representing an EC80 of b-adrenergic receptor activity (Sigma #16504, 400 times final concentration) and EC20 acetylcholine in 1.25% DMSO was added to all columns of the compound plate, with the exception of column 12 to allow for EC0 control. […] Compounds are now 5 times the final assay concentration. The plate was mixed using a plate agitator. At the end of the 2 hour GloSensor™ incubation, add 10 μL of the CO2-independent media containing agonist, EC20 acetylcholine and isoproterenol to the cell plate. Cell plate was then incubated for 10 minutes at room temperature, and then read using an EnVision plate reader (Perkin Elmer).
Data was exported from the EnVision plate reader. The percent effect for each well was determined using the mean values for the positive and negative controls on each plate for each read, specifically 100*(compound−negative control)/(positive control−negative control). Dose response curves were fitted to the compound percent effect data using a 4-parameter logistic fit model. Data was reported as EC50 and Emax, with the Emax as the maximum asymptote of the fitted dose response curve.

Structure (SMILES) | EC50 | Emax | EC50 Mean Asymptote Maximum (%)
CNc1nc(C)c(C)c2c1CN(C(=O)C[C@@H]1C[C@H]1c1ccc(C)nc1)C2 (single isomer, unassigned) [Example 46, 1-[6,7-dimethyl-4-(methylamino)-1,3-dihydro-2H-pyrrolo[3,4-c]pyridin-2-yl]-2-[trans-2-(6-methylpyridin-3-yl)cyclopropyl]ethanone] | > 10000 nM |  | 
CNc1nc(C)c(C)c2c1CN(C(=O)C[C@@H]1C[C@H]1c1ccc(C)nc1)C2 (single isomer, unassigned) [Example 47, 1-[6,7-dimethyl-4-(methylamino)-1,3-dihydro-2H-pyrrolo[3,4-c]pyridin-2-yl]-2-[trans-2-(6-methylpyridin-3-yl)cyclopropyl]ethanone] | 2.05 nM | 115% | 
CNc1nc(C)c(C)c2c1CN(C(=O)CC1CN(c3ccnc(OC(F)F)c3)C1)C2C (single isomer, unassigned) [Example 49, 2-{1-[2-(difluoromethoxy)pyridin-4-yl]azetidin-3-yl}-1-[1,6,7-trimethyl-4-(methylamino)-1,3-dihydro-2H-pyrrolo[3,4-c]pyridin-2-yl]ethanone] | 754 nM |  | 140^c %
CNc1nc(C)c(C)c2c1CN(C(=O)CC1CN(c3ccnc(OC(F)F)c3)C1)C2C (single isomer, unassigned) [Example 50, 2-{1-[2-(difluoromethoxy)pyridin-4-yl]azetidin-3-yl}-1-[1,6,7-trimethyl-4-(methylamino)-1,3-dihydro-2H-pyrrolo[3,4-c]pyridin-2-yl]ethanone] | 9.88 nM |  | 104^c %
CNc1nc(C)c(C)c2c1CN(C(=O)CC1Cc3ccc(F)cc3C1)C2 (single isomer, unassigned) [Example 57, 1-[6,7-dimethyl-4-(methylamino)-1,3-dihydro-2H-pyrrolo[3,4-c]pyridin-2-yl]-2-(5-fluoro-2,3-dihydro-1H-inden-2-yl)ethanone] | 30.9 nM | 97% | 
CNc1nc(C)c(C)c2c1CN(C(=O)CC1CN(c3ncns3)C1)C2 [Example 2, 1-[6,7-Dimethyl-4-(methylamino)-1,3-dihydro-2H-pyrrolo[3,4-c]pyridin-2-yl]-2-[1-(1,2,4-thiadiazol-5-yl)azetidin-3-yl]ethanone] | 4.33 nM | 96.1% | 
CNc1nc(C)c(C)c2c1CN(C(=O)CC1CN(c3ccnc(OC(F)F)c3)C1)C2 [Example 3, 2-{1-[2-(Difluoromethoxy)pyridin-4-yl]azetidin-3-yl}-1-[6,7-dimethyl-4-(methylamino)-1,3-dihydro-2H-pyrrolo[3,4-c]pyridin-2-yl]ethanone] | 2.91 nM | 106% | 
CNc1nc(C)c(C)c2c1CN(C(=O)OC1Cc3cccnc3C1)C2 (centres unmarked) [Example 6, 6,7-Dihydro-5H-cyclopenta[b]pyridin-6-yl 6,7-dimethyl-4-(methylamino)-1,3-dihydro-2H-pyrrolo[3,4-c]pyridine-2-carboxylate] | 50.6 nM | 92% | 
Cc1nc(NCC2CC2)c2c(c1C)CN(C(=O)CC1CN(c3ccncn3)C1)C2 [Example 22, 1-{4-[(cyclopropylmethyl)amino]-6,7-dimethyl-1,3-dihydro-2H-pyrrolo[3,4-c]pyridin-2-yl}-2-[1-(pyrimidin-4-yl)azetidin-3-yl]ethanone] | 0.626 nM | 99.7% | 

The next lines start with the values.

EC50 | Emax | EC50 Mean Asymptote Maximum (%) | Structure (SMILES)
8.62 nM | 90.9% |  | Cc1c2c(c(=O)n(C)c1C)CN(C(=O)CC1CN(c3cccnc3)C1)C2 [Example 1, 5,6,7-Trimethyl-2-{[1-(pyridin-3-yl)azetidin-3-yl]acetyl}-1,2,3,5-tetrahydro-4H-pyrrolo[3,4-c]pyridin-4-one]
1.76 nM | 95.8% |  | CNc1nc(C)c(C)c2c1CN(C(=O)CC1CN(c3cccnc3)C1)C2 [Example 4, 1-[6,7-Dimethyl-4-(methylamino)-1,3-dihydro-2H-pyrrolo[3,4-c]pyridin-2-yl]-2-[1-(pyridin-3-yl)azetidin-3-yl]ethanone]
1.22 nM | 96.8% |  | CNc1nc(C)c(C)c2c1CN(C(=O)OC1CN(c3cccnc3)C1)C2 [Example 5, 1-(Pyridin-3-yl)azetidin-3-yl 6,7-dimethyl-4-(methylamino)-1,3-dihydro-2H-pyrrolo[3,4-c]pyridine-2-carboxylate]
19.9 nM | 89.3% |  | Cc1nc(C)c2c(c1C)CN(C(=O)CC1CN(c3cccnc3)C1)C2 [Example 12, 2-[1-(Pyridin-3-yl)azetidin-3-yl]-1-(4,6,7-trimethyl-1,3-dihydro-2H-pyrrolo[3,4-c]pyridin-2-yl)ethanone]
20.6 nM | 87.5% |  | Cc1nc(-c2cnn(C)c2)c2c(c1C)CN(C(=O)CC1CN(c3cccnc3)C1)C2 [Example 13, 1-[6,7-dimethyl-4-(1-methyl-1H-pyrazol-4-yl)-1,3-dihydro-2H-pyrrolo[3,4-c]pyridin-2-yl]-2-[1-(pyridin-3-yl)azetidin-3-yl]ethanone]
18.5 nM | 99.4% |  | Cc1nc(CN(C)C)c2c(c1C)CN(C(=O)CC1CN(c3cccnc3)C1)C2 [Example 14, 1-{4-[(dimethylamino)methyl]-6,7-dimethyl-1,3-dihydro-2H-pyrrolo[3,4-c]pyridin-2-yl}-2-[1-(pyridin-3-yl)azetidin-3-yl]ethanone]
17.9 nM | 102% |  | Cc1nc(N(C)C)c2c(c1C)CN(C(=O)CC1CN(c3cccnc3)C1)C2 [Example 17, 1-[4-(dimethylamino)-6,7-dimethyl-1,3-dihydro-2H-pyrrolo[3,4-c]pyridin-2-yl]-2-[1-(pyridin-3-yl)azetidin-3-yl]ethanone]
23.6 nM | 91.7% |  | Cc1nc(C(F)F)c2c(c1C)CN(C(=O)CC1CN(c3cccnc3)C1)C2 [Example 18, 1-[4-(difluoromethyl)-6,7-dimethyl-1,3-dihydro-2H-pyrrolo[3,4-c]pyridin-2-yl]-2-[1-(pyridin-3-yl)azetidin-3-yl]ethanone]
1.23 nM | 92.3% |  | CNc1nc(C)c(C)c2c1CN(C(=O)CC1CN(c3cncnc3)C1)C2 [Example 19, 1-[6,7-dimethyl-4-(methylamino)-1,3-dihydro-2H-pyrrolo[3,4-c]pyridin-2-yl]-2-[1-(pyrimidin-5-yl)azetidin-3-yl]ethanone]
30.4 nM | 95.1% |  | Cc1nc(N(C)C)c2c(c1C)CN(C(=O)CC1CN(c3cncnc3)C1)C2 [Example 20, 1-[4-(dimethylamino)-6,7-dimethyl-1,3-dihydro-2H-pyrrolo[3,4-c]pyridin-2-yl]-2-[1-(pyrimidin-5-yl)azetidin-3-yl]ethanone]
8.72 nM | 99.7% |  | Cc1[nH]c(=O)c2c(c1C)CN(C(=O)CC1CN(c3cccnc3)C1)C2 [Example 21, 6,7-dimethyl-2-{[1-(pyridin-3-yl)azetidin-3-yl]acetyl}-1,2,3,5-tetrahydro-4H-pyrrolo[3,4-c]pyridin-4-one]
1.44 nM | 95.9% |  | CNc1nc(C)c(C)c2c1CN(C(=O)CC1CN(c3ccncn3)C1)C2 [Example 23, 1-[6,7-dimethyl-4-(methylamino)-1,3-dihydro-2H-pyrrolo[3,4-c]pyridin-2-yl]-2-[1-(pyrimidin-4-yl)azetidin-3-yl]ethanone]
